# Patent publication US20220304979A1, “METHODS OF REDUCING DISEASE FLARES” (Chinook Therapeutics, Inc., priority 2019, published 2022)
# Test system: kidney tissue of g-ddY mice
# Assay: RNA-seq differential gene expression in kidney tissue of g-ddY mice
# Assay type: in vivo, mouse
# Method: RNA isolation and sequencing libraries were generated using standard protocols. Sequencing was performed using an Illumina NextSeq500 using manufacturer's instructions with a read length of 75 bp and a read depth of 30 million. Raw data was assembled to FASTQ files. Following QC analysis, high quality sequencing reads (e.g., reads with a Phred quality score >36) were aligned to the mouse reference genome (GRCm38-mm10) using the default parameters of the align algorithm and transcript count tables of each library was generated using the default parameters of the featureCounts algorithm of the RSubread package (Liao […], Shi W, 2019). High quality sequencing reads mapped to 27,129 genes. Following additional QC of low count filtering (i.e. transcripts <10 counts across all samples), 16,207 genes were identified and used for further analysis. The remaining sequencing read counts of the included 16,207 genes were normalized to library size, log-transformed, and were quantified as counts per million (CPM). Select RNA-seq counts were validated using qPCR. Sequencing read counts (CPM) were used for identification of differential gene expression between specified populations using the quasi-likelihood methodology of the edgeR package. […] MA plots were generated using edgeR. Heatmaps and other plots were generated using the gplots and ggplot2 package.
# [1] = atrasentan 10 mg/kg/day vs 0 mg/kg/day (control), g-ddY mice
# [2] = atrasentan 20 mg/kg/day vs 0 mg/kg/day (control), g-ddY mice
# [3] = atrasentan 30 mg/kg/day vs 0 mg/kg/day (control), g-ddY mice
smiles,measurement,setting,value
"CCCCN(CCCC)C(=O)CN1C[C@H](c2ccc3c(c2)OCO3)[C@@H](C(=O)O)[C@@H]1c1ccc(OC)cc1 [atrasentan, (2R,3R,4S)-4-(1,3-benzodioxol-5-yl)-1-[2-(dibutylamino)-2-oxoethyl]-2-(4-methoxyphenyl)pyrrolidine-3-carboxylic acid]",ET1 gene signature genes downregulated versus untreated control,10 mg/kg/day,"Grk5, Mllt3, Klf2, Pparg, Hgf, Edn1, Fos, Ptgs2, and IL-1b"
same,ET1 gene signature genes upregulated versus untreated control,10 mg/kg/day,"Ccnd1, Ppara, Agt, Map2k2 and Hoxa9"
same,ET1 gene signature genes downregulated versus untreated control,20 mg/kg/day,"Nfatc1, Grk5, Klf2, Cav1, Pparg, Itga5, Myc, Ednra, Sell, Hgf, Mmp2, Edn1, Syk, Fos, and IL-1b"
same,ET1 gene signature genes upregulated versus untreated control,20 mg/kg/day,"Ccdn1, Cat, Ppara, Map2k2, Hoxa9, Agt, and Egfr"
same,ET1 gene signature genes downregulated versus untreated control,30 mg/kg/day,"Ednrb, Myc, Mllt3, Hdac7, Ednra, Itga5, Grk5, Pparg, Klf2, Hgf, Mmp2, Sell, Sphk1, Fos, Syk, Edn1, and IL-1b"
same,ET1 gene signature genes upregulated versus untreated control,30 mg/kg/day,"Ccnd1, Agt, Cat, Map2k2, Hoxa9, and Ppara"
same,gene expression of Ednra and Ednrb,30 mg/kg/day,downregulated
same,gene expression of ET1 (End1),"all three doses (10, 20, 30 mg/kg/day)",downregulated
same,logFC Ahnak gene expression,[1],−0.5756
same,logFC Akap12 gene expression,[1],−0.2687
same,logFC Akt3 gene expression,[1],−0.3863
same,logFC Aldob gene expression,[1],0.4194
same,logFC Ankrd12 gene expression,[1],−0.2824
same,logFC C7 gene expression,[1],−0.7767
same,logFC Caldl gene expression,[1],−0.3719
same,logFC Cblb gene expression,[1],−0.082
same,logFC Ebfl gene expression,[1],−0.3301
same,logFC Epb4112 gene expression,[1],−0.4375
same,logFC Etsl gene expression,[1],−0.2198
same,logFC Fchsd2 gene expression,[1],−0.2564
same,logFC Frmd4a gene expression,[1],−0.2838
same,logFC Gata3 gene expression,[1],−0.4822
same,logFC Gpx3 gene expression,[1],0.6802
same,logFC Igfbp7 gene expression,[1],0.2052
same,logFC Lama2 gene expression,[1],−0.2955
same,logFC Maml2 gene expression,[1],−0.2318
same,logFC Mef2c gene expression,[1],−0.6217
same,logFC Meisl gene expression,[1],−0.2507
same,logFC Myh9 gene expression,[1],−0.2094
same,logFC Myole gene expression,[1],−0.2349
same,logFC Nbea gene expression,[1],−0.2819
same,logFC Nr4a1 gene expression,[1],−1.525
same,logFC Piezo2 gene expression,[1],−0.4078
same,logFC Postn gene expression,[1],−1.385
same,logFC Pparg gene expression,[1],−0.6129
same,logFC Ppp1r12a gene expression,[1],−0.1995
same,logFC Prkgl gene expression,[1],−0.2187
same,logFC Psd3 gene expression,[1],−0.3544
same,logFC Ptprm gene expression,[1],−0.2614
same,logFC Rapgef5 gene expression,[1],−0.2732
same,logFC Raphl gene expression,[1],−0.2965
same,logFC Rbms3 gene expression,[1],−0.5749
same,logFC Robol gene expression,[1],−0.4803
same,logFC Stard13 gene expression,[1],−0.7224
same,logFC Tacc1 gene expression,[1],−0.2449
same,logFC Tcf4 gene expression,[1],−0.2176
same,logFC Tjpl gene expression,[1],−0.2489
same,logFC Tns3 gene expression,[1],−0.2638
same,logFC Unc5c gene expression,[1],0.5618
same,logFC Utrn gene expression,[1],−0.49
same,logFC Zeb2 gene expression,[1],−0.5638
same,logFC Ahnak gene expression,[2],−0.7128
same,logFC Akap12 gene expression,[2],−0.5404
same,logFC Akt3 gene expression,[2],−0.4673
same,logFC Aldob gene expression,[2],0.4923
same,logFC Ankrd12 gene expression,[2],−0.2463
same,logFC C7 gene expression,[2],−1.277
same,logFC Caldl gene expression,[2],−0.5361
same,logFC Cblb gene expression,[2],−0.2068
same,logFC Ebfl gene expression,[2],−0.3512
same,logFC Epb4112 gene expression,[2],−0.6149
same,logFC Etsl gene expression,[2],−0.3065
same,logFC Fchsd2 gene expression,[2],−0.1882
same,logFC Frmd4a gene expression,[2],−0.3955
same,logFC Gata3 gene expression,[2],−0.4924
same,logFC Gpx3 gene expression,[2],0.71
same,logFC Igfbp7 gene expression,[2],0.1088
same,logFC Lama2 gene expression,[2],−0.4437
same,logFC Maml2 gene expression,[2],−0.2311
same,logFC Mef2c gene expression,[2],−0.6302
same,logFC Meisl gene expression,[2],−0.3593
same,logFC Myh9 gene expression,[2],−0.4543
same,logFC Myole gene expression,[2],−0.292
same,logFC Nbea gene expression,[2],−0.1933
same,logFC Piezo2 gene expression,[2],−0.6148
same,logFC Postn gene expression,[2],−2.293
same,logFC Pparg gene expression,[2],−0.5616
same,logFC Ppp1r12a gene expression,[2],−0.2135
same,logFC Prkgl gene expression,[2],−0.328
same,logFC Psd3 gene expression,[2],−0.5227
same,logFC Ptprm gene expression,[2],−0.2678
same,logFC Rapgef5 gene expression,[2],-0.3804
same,logFC Raphl gene expression,[2],−0.3852
same,logFC Rbms3 gene expression,[2],−0.7192
same,logFC Robol gene expression,[2],−0.7261
same,logFC Stard13 gene expression,[2],−0.6367
same,logFC Tacc1 gene expression,[2],−0.3693
same,logFC Tcf4 gene expression,[2],−0.224
same,logFC Tjpl gene expression,[2],−0.3054
same,logFC Tns3 gene expression,[2],−0.3043
same,logFC Unc5c gene expression,[2],0.3685
same,logFC Utrn gene expression,[2],−0.5143
same,logFC Zeb2 gene expression,[2],−0.6492
same,logFC Ahnak gene expression,[3],−1.013
same,logFC Akap12 gene expression,[3],−0.8211
same,logFC Akt3 gene expression,[3],−0.4843
same,logFC Aldob gene expression,[3],0.748
same,logFC Ankrd12 gene expression,[3],−0.4726
same,logFC C7 gene expression,[3],−1.079
same,logFC Caldl gene expression,[3],−0.506
same,logFC Cblb gene expression,[3],−0.4288
same,logFC Ebfl gene expression,[3],−0.4506
same,logFC Epb4112 gene expression,[3],−0.7021
same,logFC Etsl gene expression,[3],−0.3379
same,logFC Fchsd2 gene expression,[3],−0.3772
same,logFC Frmd4a gene expression,[3],−0.5742
same,logFC Gata3 gene expression,[3],−0.5216
same,logFC Gpx3 gene expression,[3],1.122
same,logFC Igfbp7 gene expression,[3],0.4259
same,logFC Lama2 gene expression,[3],−0.4895
same,logFC Maml2 gene expression,[3],−0.4441
same,logFC Mef2c gene expression,[3],−0.6869
same,logFC Meisl gene expression,[3],−0.4934
same,logFC Myh9 gene expression,[3],−0.6171
same,logFC Myole gene expression,[3],−0.4177
same,logFC Nbea gene expression,[3],−0.432
same,logFC Piezo2 gene expression,[3],−0.8237
same,logFC Postn gene expression,[3],−1.247
same,logFC Pparg gene expression,[3],−0.6781
same,logFC Ppp1r12a gene expression,[3],−0.3826
same,logFC Prkgl gene expression,[3],−0.6356
same,logFC Psd3 gene expression,[3],−0.5843
same,logFC Ptprm gene expression,[3],−0.5453
same,logFC Rapgef5 gene expression,[3],−0.4225
same,logFC Raphl gene expression,[3],−0.5358
same,logFC Rbms3 gene expression,[3],−0.8895
same,logFC Robol gene expression,[3],−0.6009
same,logFC Stard13 gene expression,[3],−0.8466
same,logFC Tacc1 gene expression,[3],−0.4924
same,logFC Tcf4 gene expression,[3],−0.3055
same,logFC Tjpl gene expression,[3],−0.3989
same,logFC Tns3 gene expression,[3],−0.4522
same,logFC Unc5c gene expression,[3],0.9517
same,logFC Utrn gene expression,[3],−0.7697
same,logFC Zeb2 gene expression,[3],−0.6778
